Like-named read-outs stand apart in the source and are kept apart here.
How the values were obtained:
EtCRK2 = tested on: EtCRK2; set-up: method as in Engels et al., 2010; details: ref Engels et al., 2010, cited from earlier work
[1] = tested on: E. tenella schizont development; set-up: method as in Engels et al., 2010; details: ref Engels et al., 2010, cited from earlier work
host cell = tested on: host cell; set-up: method as in Engels et al., 2010; details: ref Engels et al., 2010; cited from earlier work
EtCRK2/XlRINGO = EtCRK2/XlRINGO (Eimeria tenella, UniProt Q6R8F0); assay: biochemical
From the text: Therefore, we tested XlRINGO as an activator of EtCRK2.
(§1) In order to discover specific inhibitors of EtCRK2 we performed an in vitro screening campaign supported by an in silico hit enrichment (Fig. 4).

HsCDK2/HsCYCA = HsCDK2/HsCYCA (Homo sapiens, UniProt P24941); assay: TR-FRET kinase assay, human CDK2 activated by human cyclin A; type: biochemical; details: for IC50 / Ki: mean±SD, n = 3–6
EtCRK2/EtCYC3a = EtCRK2/EtCYC3a (Eimeria tenella, UniProt Q6R8F0); assay: TR-FRET kinase assay, EtCRK2 activated by EtCYC3a; type: biochemical
From the text: as §1

[2] = target: Eimeria tenella cyclin-like 3a (EtCYC3a), maltose binding protein fusion (Eimeria tenella)
[3] = lead structures, mean±SD, n = 3–6, read-out: IC50 EtCRK2/ XlRINGO
[4] = lead structures, mean±SD, n = 3–6, read-out: Ki EtCRK2/ XlRINGO
[5] = lead structures, mean±SD, n = 3–6, read-out: IC50 EtCRK2/ EtCYC3a
[6] = lead structures, mean±SD, n = 3–6, read-out: Ki EtCRK2/ ETCYC3a
[7] = standard CDK inhibitors, mean±SD, n = 3–6, read-out: IC50 EtCRK2/XlRINGO
[8] = standard CDK inhibitors, mean±SD, n = 3–6, read-out: Ki EtCRK2/XlRINGO
[9] = standard CDK inhibitors, mean±SD, n = 3–6, read-out: IC50 EtCRK2/EtCYC3a
[10] = standard CDK inhibitors, mean±SD, n = 3–6, read-out: Ki EtCRK2/EtCYC3a

Molecule | IC50 (EtCRK2/XlRINGO; [3]) [nM] | Ki (EtCRK2/XlRINGO; [4]) [nM] | IC50 (HsCDK2/HsCYCA; lead structures) [nM] | Ki (HsCDK2/HsCYCA; lead structures) [nM] | IC50 (EtCRK2/XlRINGO; [7]) [nM] | Ki (EtCRK2/XlRINGO; [8]) [nM] | IC50 (EtCRK2/EtCYC3a; [9]) [nM] | Ki (EtCRK2/EtCYC3a; [10]) [nM] | IC50 (EtCRK2/EtCYC3a) [nM] | Ki (EtCRK2/EtCYC3a) [nM] | further results
CN1CC[C@H](c2c(O)cc(O)c3c(=O)cc(-c4ccccc4Cl)oc23)[C@H](O)C1 [Flavopiridole, 2-(2-chlorophenyl)-5,7-dihydroxy-8-[(3S,4R)-3-hydroxy-1-methyl-4-piperidinyl]-4H-1-benzopyran-4-one] | – | – | – | – | – | – | – | – | – | – | IC50 (EtCRK2; read-out: IC50 EtCRK2 in enzyme assays): 33 ± 10 nM; Ki (EtCRK2; read-out: Ki EtCRK2 in enzyme assays): 11 ± 3 nM; inhibition of E. tenella schizont development ([1]; at concentrations of 150 and 300 nM): fully inhibits; inhibition of E. tenella schizont development ([1]; concentrations below 80 nm): no inhibitory effects; concentrations at which host cell toxicity is observed (host cell): above 600 nM
Cc1cc(O)c2c(c1O)C(=O)C(Cl)=C(Cl)C2=O [BES130131, 2,3-dichloro-5,8-dihydroxy-6-methyl-naphthalene-1,4-dione] | 14800 ± 8410 | 5250 ± 200 | 14400 ± 1520 | 3350 ± 1060 | – | – | – | – | – | – | IC50 (EtCRK2/EtCYC3a; [5]): 18100 ± 1030 nM; Ki (EtCRK2/EtCYC3a; [6]): 6870 ± 1740 nM
O=C1Nc2ccc(S(=O)(=O)O)cc2/C1=C1/Nc2ccccc2C1=O [Indirubin-5′-sulfonic acid, (3Z)-2-oxo-3-(3-oxo-1H-indol-2-ylidene)-1H-indole-5-sulfonic acid] | – | – | – | – | 670 ± 180 | 170 ± 30 | 940 ± 310 | 240 ± 100 | – | – | –
OC(CSc1ccccc1)CN1CCC(Nc2nccc(C(F)(F)F)n2)CC1 (centres unmarked) [BES124764, 1-phenylsulfanyl-3-[4-[[4-(trifluoromethyl)pyrimidin-2-yl]amino]-1-piperidyl]propane-2-ol] | 18600 ± 3720 | 4330 ± 920 | > 200000 | 95300 ± 19100 | – | – | – | – | – | – | times more active towards the two E. tenella complexes than towards the HsCDK2/HsCYCA complex (HsCDK2/HsCYCA; EtCRK2/XlRINGO and EtCRK2/EtCYC3a versus HsCDK2/HsCYCA): 25–30 times; selectivity for EtCRK2 versus HsCDK2 (HsCDK2/HsCYCA; result in words): selective for EtCRK2; IC50 (EtCRK2/EtCYC3a; [5]): 7350 ± 1820 nM; Ki (EtCRK2/EtCYC3a; [6]): 3420 ± 1080 nM
CN[C@@H]1C[C@H]2O[C@@](C)([C@@H]1OC)n1c3ccccc3c3c4c(c5c6ccccc6n2c5c31)C(=O)NC4 [Staurosporine, (9S,10R,11R,13R)-2,3,10,11,12,13-hexahydro-10-methoxy-9-methyl-11-(methylamino)-9,13-epoxy-1H,9H-diindolo[1,2,3-gh:3′,2′,1′-lm]pyrrolo[3,4-j][1,7]benzodiazonin-1-one] | – | – | – | – | – | – | – | – | 190 ± 90 | 530 ± 200 | IC50 (EtCRK2/XlRINGO): 90 ± 10 nM; Ki (EtCRK2/XlRINGO): 20 ± 10 nM
Eimeria tenella CDC2-related kinase 2 (EtCRK2), His-tagged (enzyme) | – | – | – | – | – | – | – | – | – | – | specific activity of EtCRK2 in the EtCRK2/EtCYC3a complex, TR-FRET kinase assay with fluorescein-labelled histone H1 substrate [2]: 0.15 µmol/min/mg
Nc1cc(S(=O)(=O)O)c2cccnc2c1O [BES312351, 7-amino-8-hydroxy-quinoline-5-sulfonic acid hydrate] | 7130 ± 2490 | 940 ± 310 | 5160 ± 2850 | 780 ± 610 | – | – | – | – | 6500 ± 2490 | 4670 ± 2020 | –
O=C1Cc2c([nH]c3ccc([N+](=O)[O-])cc23)-c2ccccc2N1 [Alsterpaullone, 9-nitro-7,12-dihydro-5H-indolo[3,2-d][1]benzazepin-6-one] | – | – | – | – | 220 ± 60 | 70 ± 2 | 640 ± 340 | 210 ± 40 | – | – | –
NC1=NC(=O)/C(=C2\CCNC(=O)c3[nH]c(Br)cc32)N1 [10-Z-Hymendialdisine, (4Z)-4-(2-amino-4-oxo-1H-imidazol-5-ylidene)-2-bromo-1,5,6,7-tetrahydropyrrolo[2,3-c]azepin-8-one] | – | – | – | – | 440 ± 80 | 50 ± 20 | – | – | 930 ± 40 | 190 ± 10 | IC50 (HsCDK2/HsCYCA; standard CDK inhibitors): 120 ± 20 nM; Ki (HsCDK2/HsCYCA; standard CDK inhibitors): 30 ± 1 nM
CC(C)C(CO)Nc1nc(Nc2cccc(Cl)c2)c2ncn(C(C)C)c2n1 (centres unmarked) [Purvalanol A, 2-[[6-[(3-chlorophenyl)amino]-9-isopropyl-purin-2-yl]amino]-3-methyl-butan-1-ol] | – | – | – | – | – | – | 1030 ± 180 | 360 ± 130 | – | – | IC50 (EtCRK2/XlRINGO): 800 ± 110 nM; Ki (EtCRK2/XlRINGO): 80 ± 10 nM; IC50 (HsCDK2/HsCYCA; standard CDK inhibitors): 140 ± 40 nM; Ki (HsCDK2/HsCYCA; standard CDK inhibitors): 40 ± 1 nM

— article PMC3542813, “High-throughput screening with the Eimeria tenella CDC2-related kinase2/cyclin complex EtCRK2/EtCYC3a” (Microbiology, 2012)
